Source: US20100120715A1, “BETA-LACTAMASE INHIBITORS” (priority 2007, published 2010)
Read-outs that look alike come from different tables or passages of the source.

What was measured:
[1] = tested on: E. coli expressing the Class A ESBL SHV-5; test: microbe, parasite or virus in culture; assay type: cell-based
Description: (§1) To determine the ability of test compounds to potentiate the inhibition of the growth of bacterial strains producing beta-lactamase enzymes, classic cell based screening assays were employed. Four bacteria strains producing beta-lactamase enzymes were used: K. pneumoniae expressing the Class A Extended Spectrum Beta-Lactamase (ESBL) CTX-M-15, E. coli expressing the Class A ESBL SHV-5, E. cloacae expressing the Class C P99+, and K. pneumoniae expressing the Class A carbapenemase KPC-2. In order to evaluate the ability of test compounds to inhibit beta-lactamase activity, Applicants used a modification of the broth microdilution assay. The assay was conducted in Cation Adjusted Mueller Hinton Broth (CAMHB, BD # 212322, BD Diagnostic Systems, Sparks, Md.). Bacteria strains were grown for 3-5 hours in CAMBH broth. All four strains were grown in presence of 50 μg/mL ampicillin to ensure resistance is maintained. In the meantime, test compounds were diluted in DMSO to a 0.1 mg/mL stock. The compounds were added to a microtiter plate and were diluted in 2-fold serial dilutions in CAMHB in a final concentration range of 8 μg/mL to 0.015 μg/ml. An overlay of CAMHB containing a cephalosporin was added to the compounds at a final static concentration of 8 μg/ml. […] Each of these compound plates are made in quadruplicate, one for each bacteria strain. In addition to the titration of test compounds the MICs of a panel of cephalosporins is also tested to ensure the strains are behaving consistently from test to test. Once the test compound and cephalosporin are added the plates can be inoculated. Inocula are conducted according to CLSI broth microdilution method. After inoculation the plates are incubated for 16-20 hours at 37° C. then the Minimal Inhibitory Concentration (MIC) of the test compound is determined visually.

[2] = tested on: E. cloacae expressing the Class C P99+ AmpC; test: microbe, parasite or virus in culture; assay type: cell-based; settings: for MIC of example compound, E. cloacae P99 AmpC + 8 μg/mL CAZ: in the presence of fixed 8 μg/mL Ceftazidime
Description: as §1

[3] = tested on: K. pneumoniae expressing the Class A ESBL CTX-M-15; test: microbe, parasite or virus in culture; assay type: cell-based; settings: for MIC of example compound, K. pneumoniae CTX-M-15 + 8 μg/mL CAZ: in the presence of fixed 8 μg/mL Ceftazidime
[4] = tested on: K. pneumoniae expressing the Class A carbapenemase KPC-2; test: microbe, parasite or virus in culture; settings: for MIC of example compound, K. pneumoniae KPC-2 + 8 μg/mL CAZ: in the presence of fixed 8 μg/mL Ceftazidime
Class A ESBL SHV-5 = molecular target: T1, Class A ESBL SHV-5 (Klebsiella pneumoniae, UniProt P0A3M1); assay type: biochemical, E. coli; settings: nitrocefin 100 μM, PBS pH 7.0, read-out: SHV-5 IC50 Range
T1 construct: made in house; host or cells: E. coli BL21(DE3) for purified enzyme; E. coli cells containing SHV-5 for extracts

Class C P99 AmpC = molecular target: T2, Class C P99 AmpC (Enterobacter cloacae, UniProt P05364); assay type: biochemical; settings: purified enzyme; nitrocefin 100 μM, PBS pH 7.0; read-out: P99 AmpC IC50 Range
T2 construct: made in house; host or cells: E. coli BL21(DE3)
Method in brief: (§2)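 Native untagged enzymes were expressed in E. coli BL21(DE3) and purified by cation exchange and gel filtration. Compound series (100–0.005 μM in PBS pH 7.0, before addition of an equal enzyme volume) were preincubated with enzyme 10 min at 37°C. Nitrocefin (100 μM final) hydrolysis was read kinetically at 486 nm for 10 min, and IC50 was taken as 50% reduction of initial rate versus no-inhibitor wells.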

Class A ESBL CTXM-15 = molecular target: T3, Class A ESBL CTXM-15 (Escherichia coli, UniProt Q9EXV5); test: β-lactamase enzyme inhibition (nitrocefin hydrolysis), CTXM-15; assay type: biochemical; settings: purified enzyme; nitrocefin 100 μM, PBS pH 7.0; read-out: CTXM-15 IC50 Range
T3 construct: made in house; host or cells: E. coli BL21(DE3)
Method in brief: as §2

[5] = molecular target: T4, Class A carbapenemase KPC-2 (Klebsiella pneumoniae, UniProt Q9F663); test: β-lactamase enzyme inhibition (nitrocefin hydrolysis), KPC-2; assay type: biochemical; settings: purified enzyme; nitrocefin 100 μM, PBS pH 7.0; read-out: KPC-2 IC50 Range
T4 construct: made in house; host or cells: E. coli BL21(DE3)
Method in brief: as §2

[6] = Klebsiella pneumoniae, read-out: MIC alone
[7] = cellular extracts of E. coli containing SHV-5 (Examples 2-30)
[8] = purified beta-lactamase enzyme (Examples 1 and 31-64)

T4 sequence (Q9F663 25-293 limits assumed): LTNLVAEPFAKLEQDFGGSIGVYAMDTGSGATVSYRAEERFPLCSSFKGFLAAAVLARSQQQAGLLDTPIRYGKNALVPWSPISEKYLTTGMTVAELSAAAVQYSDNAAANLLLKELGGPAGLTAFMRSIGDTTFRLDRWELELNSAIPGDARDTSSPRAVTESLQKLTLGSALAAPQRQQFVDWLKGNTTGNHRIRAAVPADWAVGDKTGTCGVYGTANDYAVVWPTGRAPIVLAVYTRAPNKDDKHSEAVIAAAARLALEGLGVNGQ
T2 sequence (P05364 21-381): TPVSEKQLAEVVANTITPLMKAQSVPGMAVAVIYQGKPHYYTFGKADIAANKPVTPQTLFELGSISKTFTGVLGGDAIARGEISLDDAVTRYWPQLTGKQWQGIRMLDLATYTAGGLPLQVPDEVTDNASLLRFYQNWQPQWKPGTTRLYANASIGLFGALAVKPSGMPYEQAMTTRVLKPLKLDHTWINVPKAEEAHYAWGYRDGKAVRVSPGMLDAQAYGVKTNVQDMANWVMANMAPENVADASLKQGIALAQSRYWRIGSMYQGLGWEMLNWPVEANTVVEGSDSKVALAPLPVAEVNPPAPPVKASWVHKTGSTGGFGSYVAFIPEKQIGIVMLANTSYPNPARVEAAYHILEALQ
T1 sequence (P0A3M1 22-286): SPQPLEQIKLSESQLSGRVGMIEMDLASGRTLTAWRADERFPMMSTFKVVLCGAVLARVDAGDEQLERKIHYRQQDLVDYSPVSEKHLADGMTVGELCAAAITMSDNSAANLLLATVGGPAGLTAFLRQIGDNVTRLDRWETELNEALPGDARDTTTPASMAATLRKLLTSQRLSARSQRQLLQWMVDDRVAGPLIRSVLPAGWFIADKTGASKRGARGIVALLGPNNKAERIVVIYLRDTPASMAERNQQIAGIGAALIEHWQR
T3 sequence (Q9EXV5 entry or part of it): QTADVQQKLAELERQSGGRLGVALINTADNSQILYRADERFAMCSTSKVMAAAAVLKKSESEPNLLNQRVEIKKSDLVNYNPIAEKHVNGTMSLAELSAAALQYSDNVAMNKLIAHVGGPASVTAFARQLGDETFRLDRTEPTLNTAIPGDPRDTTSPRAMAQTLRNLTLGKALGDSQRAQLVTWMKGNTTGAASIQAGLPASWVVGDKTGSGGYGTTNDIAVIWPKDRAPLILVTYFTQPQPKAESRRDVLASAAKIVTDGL

Row | Structure (SMILES) | MIC ([1]; Escherichia coli, read-out: MIC alone) | MIC ([2]; Enterobacter cloacae, read-out: MIC alone) | MIC [3, 6] | MIC [4, 6] | MIC of example compound, E. coli SHV-5 + 8 μg/mL CAZ ([1]; in the presence of fixed 8 μg/mL Ceftazidime) | MIC of example compound, E. cloacae P99 AmpC + 8 μg/mL CAZ [2] | MIC of example compound, K. pneumoniae CTX-M-15 + 8 μg/mL CAZ [3] | IC50 (Class A ESBL SHV-5; [7]) | IC50 (Class C P99 AmpC) | IC50 (Class A ESBL CTXM-15) | MIC of example compound, K. pneumoniae KPC-2 + 8 μg/mL CAZ [4] | IC50 [5] | IC50 (Class A ESBL SHV-5; [8])
1 | CC(C)(O/N=C(\C(=O)N[C@@H]1C(=O)N2C(C(=O)[O-])=C(C[n+]3ccccc3)CS[C@H]12)c1csc(N)n1)C(=O)O [Ceftazidime, reference compound] | > 1020 µg/mL | 128 µg/mL | 128 µg/mL | 32 µg/mL |  |  |  |  |  |  |  |  | 
2 | Cl.NCCOc1cccc(CC(=O)N[C@@H](Cc2cccc(C(=O)O)c2O)B(O)O)c1 [Example 4, (1R)-1-[3-(2-amino)-ethoxy-phenyl]acetylamino-1-(3-carboxy-2-hydroxy)benzyl-methylboronic acid hydrochloride] |  |  |  |  | C (C represents an MIC of <1 μg/mL) | C (C represents an MIC of <1 μg/mL) | C (C represents an MIC of <1 μg/mL) | < 10 nM | < 10 nM | < 10 nM | C (C represents an MIC of <1 μg/mL) |  | 
3 | O=C(CCC(=O)c1cccs1)N[C@@H](Cc1cccc(C(=O)O)c1O)B(O)O [Example 5, (1R)-1-(4-Oxo-4-thiophen-2-yl-butyrylamino)-2-(2-hydroxy-3-carboxyphenyl)ethyl-1-boronic acid] |  |  |  |  |  | C (C represents an MIC of <1 μg/mL) | C (C represents an MIC of <1 μg/mL) | < 10 nM | < 10 nM | < 10 nM | C (C represents an MIC of <1 μg/mL) |  | 
4 | O=C(N[C@@H](Cc1cccc(C(=O)O)c1O)B(O)O)c1cccs1 [Example 11, (1R)-1-(thiophene-2-carbonyl-amino)-2-(2-hydroxy-3-carboxyphenyl)ethyl-1-boronic acid] |  |  |  |  |  | C (C represents an MIC of <1 μg/mL) | C (C represents an MIC of <1 μg/mL) | 10 to 100 nM | < 10 nM | < 10 nM | C (C represents an MIC of <1 μg/mL) |  | 
5 | O=C(N[C@@H](Cc1cccc(C(=O)O)c1O)B(O)O)c1ccccc1 [Example 13, (1R)-1-Benzoylamino-1-(3-carboxy-2-hydroxy)benzyl-methylboronic acid] |  |  |  |  |  | C (C represents an MIC of <1 μg/mL) | C (C represents an MIC of <1 μg/mL) | 10 to 100 nM | < 10 nM | 10 to 100 nM | C (C represents an MIC of <1 μg/mL) | < 10 nM | 
6 | CC(C)C(=O)N[C@@H](Cc1cccc(C(=O)O)c1O)B(O)O [Example 14, (1R)-1-Isobutyrylamino-1-(3-carboxy-2-hydroxy)benzyl-methylboronic acid] |  |  |  |  |  | C (C represents an MIC of <1 μg/mL) | C (C represents an MIC of <1 μg/mL) | 100 to 1000 nM | < 10 nM | 10 to 100 nM | C (C represents an MIC of <1 μg/mL) |  | 
7 | O=C(O)c1cccc(C[C@H](NC(=O)C2CCCC2)B(O)O)c1O [Example 15, (1R)-1-Cyclopentanecarbonylamino-(3-carboxy-2-hydroxy)benzyl-methylboronic acid] |  |  |  |  |  | C (C represents an MIC of <1 μg/mL) | C (C represents an MIC of <1 μg/mL) | 100 to 1000 nM | < 10 nM | 10 to 100 nM | C (C represents an MIC of <1 μg/mL) |  | 
8 | CCC(=O)N[C@@H](Cc1cccc(C(=O)O)c1O)B(O)O [Example 16, (1R)-1-(propionylamino)-2-(2-hydroxy-3-carboxyphenyl)ethyl-1-boronic acid] |  |  |  |  |  | C (C represents an MIC of <1 μg/mL) | C (C represents an MIC of <1 μg/mL) | 100 to 1000 nM | 10 to 100 nM | 10 to 100 nM | C (C represents an MIC of <1 μg/mL) | 10 to 100 nM | 
9 | O=C(O)c1cccc(C[C@H](NC(=O)C2CC2)B(O)O)c1O [Example 20, (1R)-1-Cyclopropanecarbonyl-amino-1-(3-carboxy-2-hydroxy)benzyl-methylboronic acid] |  |  |  |  |  | C (C represents an MIC of <1 μg/mL) | C (C represents an MIC of <1 μg/mL) | 100 to 1000 nM | < 10 nM | < 10 nM | C (C represents an MIC of <1 μg/mL) | 10 to 100 nM | 
10 | O=C(N[C@@H](Cc1cccc(C(=O)O)c1O)B(O)O)c1ccc(F)cc1 [Example 26, (1R)-1-(4-Fluorobenzoylamino)-(3-carboxy-2-hydroxy)benzyl-methylboronic acid] |  |  |  |  |  | C (C represents an MIC of <1 μg/mL) | C (C represents an MIC of <1 μg/mL) | 10 to 100 nM | < 10 nM | < 10 nM | C (C represents an MIC of <1 μg/mL) | < 10 nM | 
11 | O=C(N[C@@H](Cc1cccc(C(=O)O)c1O)B(O)O)c1ccc(O)cc1 [Example 36, (1R)-1-(4-Hydroxybenzoyl)-amino-1-(3-carboxy-2-hydroxy)benzyl-methylboronic acid] |  |  |  |  |  | C (C represents an MIC of <1 μg/mL) | C (C represents an MIC of <1 μg/mL) |  | < 10 nM | < 10 nM | C (C represents an MIC of <1 μg/mL) | < 10 nM | 100 to 1000 nM
12 | CC(=O)NCC(=O)N[C@@H](Cc1cccc(C(=O)O)c1O)B(O)O [Example 37, (1R)-1-(2-acetamidoacetylamino)-2-(2-hydroxy-3-carboxyphenyl)ethyl-1-boronic acid] |  |  |  |  |  | C (C represents an MIC of <1 μg/mL) | C (C represents an MIC of <1 μg/mL) |  | 10 to 100 nM | 10 to 100 nM | C (C represents an MIC of <1 μg/mL) | 10 to 100 nM | 10 to 100 nM
13 | O=C(N[C@@H](Cc1cccc(C(=O)O)c1O)B(O)O)c1ccno1 [Example 46, (1R)-1-(isoxazole-5-carbonyl-amino)-2-(2-hydroxy-3-carboxyphenyl)ethyl-1-boronic acid] |  |  |  |  |  | C (C represents an MIC of <1 μg/mL) | C (C represents an MIC of <1 μg/mL) |  | < 10 nM | < 10 nM | C (C represents an MIC of <1 μg/mL) | 10 to 100 nM | < 10 nM
14 | CC(=O)N1CCC(C(=O)N[C@@H](Cc2cccc(C(=O)O)c2O)B(O)O)CC1 [Example 49, (1R)-1-(1-Acetyl-piperidine-4-carbonyl)-amino-1-(3-carboxy-2-hydroxy)benzyl-methylboronic acid] |  |  |  |  |  | C (C represents an MIC of <1 μg/mL) | C (C represents an MIC of <1 μg/mL) |  | 10 to 100 nM | 10 to 100 nM | C (C represents an MIC of <1 μg/mL) | < 10 nM | 100 to 1000 nM
